Reference: US20230293644A1, “ANTI-INFLAMMATORY PEPTIDES AND COMPOSITION COMPRISING THE SAME” (Gemvax & KAEL Co., Ltd., priority 2012, published 2023)

Legend:
Assay type in all cases: cell-based, human
[1] = tested on: TNF-α; assay: Screening of TNF-α level in PMA-differentiated THP-1 cell line after LPS; conditions: 1 µM peptide, one hour; LPS 10 ng/ml
Description: Experiment was carried out using THP-1 cell line (American Type Culture Collection (ATCC), Manassas, VA, USA) which is human acute monocytic leukemia.
THP-1 cells were incubated to reach the number of 1 × 10^5 cells per well in a 96-well plate with RPMI 1640 medium for 24 hrs, followed by addition of 100 uM of PMA (phorbol 12-myristate 13-acetate) for the differentiation into macrophage. After differentiation of THP-1 into macrophage by PMA for a day, LPS was treated for 2 hrs and washed off. Starvation for an hour and PEP1 treatment followed.
THP-1 cell differentiated by PMA was treated with LPS (lipopolysaccharide; 10 ng/ml, Sigma) for 2 hours, followed by 2 times washes with PBS. To the cells, OPTI-MEM culture medium was added to induce cell starvation for an hour, and 1 µM of 179 peptides was taken out and incubated for an hour. After incubation, TNF-α level was measured by using the ELISA kit and the peptides which reduce the TNF-α level were screened (FIG. 24 to FIG. 46).

[2] = tested on: TNF-α; assay: Screening of TNF-α inhibitory effect, LPS-stimulated PBMC-derived monocytes (Example 2); conditions: 4 uM peptide, 2 hrs, LPS 10 ng/ml; for TNF-α inhibiting effect compared to the group treated with LPS and estrogen: estrogen 20 nM
Description: PBMC (peripheral blood mononuclear cells) layer was separated from blood samples (50 ml) collected in healthy subjects using Biocoll Separating Solution (Biochrom AG, Berlin, Germany). The collected PBMC were enriched in RPMI 1640 medium containing 20% human serum for 30 mins, and then transferred to 100-mm polystyeren cell culture plate coated with human serum for incubation for 2 hrs at 37° C., 5% CO^2 incubator. Monocytes were detached from the bottom of the plate using cold PBS, and incubated to reach the number of 1 × 10^5 cell/well in 96-well plate with RPMI 1640 medium (supplemented with penicillinstreptomycin; […], human serum; 20%) over night.
ELISA was performed to find out how the peptides of the PEP RIA series influence TNF-α level. PBMC-derived monocytes were incubated to reach the number of 1 × 10^5 cells per well in a 96-well plate and then treated with LPS (lipopolysaccharide; 10 ng/ml, Sigma) for 2 hours. To the monocytes that were washed three times with PBS, OPTI-MEM culture medium was added to induce cell starvation for an hour, 4 µM of the peptide was taken out and incubated for 2 hours. There were three negative control groups. The first group was not treated with anything. The second group that was treated with estrogen (in this experiment, estradiol was used as a kind of estrogen). The third group was treated with LPS (10 ng/ml) or with LPS (10 ng/ml) as well as estrogen (20 nM). PEP1 that was confirmed to have TNF-α inhibiting activity was used as a positive control to measure TNF-α inhibiting activity. After incubation, TNF-α was measured by following the ELISA kit manual (R&D, Minneapolis, MN, USA). The details of quantification method can be found in Experiment 2.2 of Example 1.
Using the method stated above, Peptides with TNF-α inhibiting effect were screened. PBMC-derived monocytes were stimulated with LPS (10 ng/ml), which is endotoxin, for 2 hours and were induced to starve by adding OPTI-MEM for 1 hour. After that, 4 uM of 179 peptides were treated and incubated for 2 hrs. The amount of TNF-α in the cell culture medium was measured using ELISA, and the peptides with TNF-α inhibiting effect were screened by comparing to the negative and positive controls (FIG. 3 to FIG. 23).

[3] = tested on: TNF-α; assay: TNF-α ELISA, LPS-stimulated PBMC-derived monocytes (Example 1); conditions: LPS 10 ng/ml 2 hrs, starved 1 hr, 4 uM for 2 hrs; cell culture medium
Description: PBMC (peripheral blood mononuclear cell) was separated from the blood samples (50ml) collected from healthy subjects using Ficoll-PaqueTM PLUS (GE Healthcare Life Sciences, Piscataway, NJ, USA). PBMCs were then enriched in complete RPMI 1640 medium containing 20% of human serum, followed by transferring to 100 mm polystyrene cell culture plate coated with human serum for 30 mins. […]
To see the effect of PEP-1 on TNF-α level in terms of protein expression level, ELISA (enzyme linked immunosorbent assay) was performed. […] After culturing, cell soup was collected, and the amount of TNF-α was measured using ELISA kit (R&D, Minneapolis, MN, USA) as follows:
TNF measurement uses sandwich ELISA method. […] Again, plate was washed, and avidin/biotin was added for measuring the absorbance. TNF-α level of each sample was quantified using the standard graph calculated from the absorbance of standard solution.
PBMC-derived monocytes were stimulated with endotoxin LPS (10 ng/ml) for 2 hrs, starved for 1 hr using OPTI-MEM, and then 4 uM of FITC, FITC-TAT, PEP 1-FITC and FITC-PEP 1 were treated for 2 hrs. After incubation, TNF-α level was measured with cell culture medium using ELISA.

Row | Substance | TNF-α level compared to control group treated only with LPS [1] | TNF-α inhibiting effect compared to the control group treated with only LPS [2] | further results
1 | ALLTSRLR (listed as Homo sapiens) [SEQ ID NO: 107] | reduce the TNF- α level | – | –
2 | ARPALLTSRL (listed as Homo sapiens) [SEQ ID NO: 113] | – | showed TNF-α inhibiting effect | expression level of TNF-α compared to group treated with LPS and estrogen [1]: reduce the expression level of TNF-α
3 | ARPALLTSRLR (listed as Homo sapiens) [SEQ ID NO: 112] | – | showed TNF-α inhibiting effect | expression level of TNF-α compared to group treated with LPS and estrogen [1]: reduce the expression level of TNF-α
4 | EARPALLTSRLRFIP (listed as Homo sapiens) [SEQ ID NO: 78] | reduce the TNF- α level | – | –
5 | EARPALLTSRLRFIPKPDGLRPIVNM (listed as Homo sapiens) [SEQ ID NO: 73] | reduce the TNF- α level | showed TNF-α inhibiting effect | TNF-α inhibiting effect compared to the group treated with LPS and estrogen [2]: showed TNF-α inhibiting effect
6 | EARPALLTSRLRFIPKPDGLRPIVNMDY (listed as Homo sapiens) [SEQ ID NO: 75] | reduce the TNF- α level | – | –
7 | EVRQHREARPALLTSRLRFIPK (listed as Homo sapiens) [SEQ ID NO: 7] | reduce the TNF- α level | – | –
8 | EVRQHREARPALLTSRLRFIPKP (listed as Homo sapiens) [SEQ ID NO: 41] | – | – | expression level of TNF-α compared to group treated with LPS and estrogen [1]: reduce the expression level of TNF-α
9 | FIP [SEQ ID NO: 179] | reduce the TNF- α level | – | –
10 | Fluorescein Isothiocyanate [FITC] | – | – | TNF-α level [3]: 6.2 ng/mL
11 | HREARPALLTSRLRFIPK (listed as Homo sapiens) [SEQ ID NO: 3] | – | – | expression level of TNF-α compared to group treated with LPS and estrogen [1]: reduce the expression level of TNF-α
12 | HREARPALLTSRLRFIPKPDGL (listed as Homo sapiens) [SEQ ID NO: 30] | – | – | expression level of TNF-α compared to group treated with LPS and estrogen [1]: reduce the expression level of TNF-α
13 | LTSR (listed as Homo sapiens) [SEQ ID NO: 109] | reduce the TNF- α level | showed TNF-α inhibiting effect | TNF-α inhibiting effect compared to the group treated with LPS and estrogen [2]: showed TNF-α inhibiting effect
14 | QHREARPALLTSRLRFIPKPDGLR (listed as Homo sapiens) [SEQ ID NO: 38] | reduce the TNF- α level | showed TNF-α inhibiting effect | –
15 | REARPALLTSRLRFIPK (listed as Homo sapiens) [SEQ ID NO: 2] | – | – | expression level of TNF-α compared to group treated with LPS and estrogen [1]: reduce the expression level of TNF-α
16 | RQHREARPALLTSRLRFIPK (listed as Homo sapiens) [SEQ ID NO: 5] | reduce the TNF- α level | – | –
17 | TSRLRFIP (listed as Homo sapiens) [SEQ ID NO: 159] | – | showed TNF-α inhibiting effect | –
18 | TSRLRFIPK (listed as Homo sapiens) [SEQ ID NO: 97] | – | showed TNF-α inhibiting effect | TNF-α inhibiting effect compared to the group treated with LPS and estrogen [2]: showed TNF-α inhibiting effect
19 | VRQHREARPALLTSRLRFIPKPD (listed as Homo sapiens) [SEQ ID NO: 33] | – | showed TNF-α inhibiting effect | TNF-α inhibiting effect compared to the group treated with LPS and estrogen [2]: showed TNF-α inhibiting effect
20 | VRQHREARPALLTSRLRFIPKPDG (listed as Homo sapiens) [SEQ ID NO: 34] | – | showed TNF-α inhibiting effect | TNF-α inhibiting effect compared to the group treated with LPS and estrogen [2]: showed TNF-α inhibiting effect
21 | VRQHREARPALLTSRLRFIPKPDGL (listed as Homo sapiens) [SEQ ID NO: 35] | – | showed TNF-α inhibiting effect | –
22 | VRQHREARPALLTSRLRFIPKPDGLR (listed as Homo sapiens) [SEQ ID NO: 36] | reduce the TNF- α level | showed TNF-α inhibiting effect | –
